Laboratory results from patent US9550763B2, “Heterocyclic ring and carbocyclic derivative” (Shionogi & Co., Ltd., priority 2012, dated 2017).

What follows are compounds tested against human P2X3 receptor (Homo sapiens (Human), UniProt P56373) (assay: Evaluation of human P2X3 receptor inhibitory activity (Test Example 1-1, FDSS 3000, 96-well, 50 nM ATP)). Settings: human P2X3 receptor in C6BU-1 cells; Test Example 1-1 (compounds I-001 to I-300).
Assay type: cell-based
Protocol: Stably expressing cell line (C6BU-1 cell transfected with human P2X3 receptor gene (GenBank accession number Y07683) was used. The cells were seeded in a 96-well microtiter plate at a concentration of 8000 cells/well and cultured in the medium (7.0% fetal bovine serum, 7.0% horse serum, 1% antibiotic and antifungal in DMEM) for one day at 37° C. under 5% carbon dioxide atmosphere. The medium was replaced with 4 μM Fluo-3-AM solution (20 mM HEPES, 137 mM NaCl, 5.27 mM KCl, 0.9 mM MgCl2, 1.26 mM CaCl2, 5.6 mM D-glucose, 2.5 mM probenecid, 1% BSA, and 0.08% Pluronic F-127, pH 7.5) and incubated at 37° C. under 5% dioxide carbon atmosphere for one hour. The plate was washed with washing buffer (20 mM HEPES, 137 mM NaCl, 5.27 mM KCl, 0.9 mM MgCl2, 1.26 mM CaCl2, 5.6 mM D-glucose, 2.5 mM probenecid, pH7.5), and each well was added with 40 μL of this buffer. The plate was placed in High-Throughput Screening System. FDSS 3000 (Hamamatsu Photonics K.K.). Measurement of fluorescence intensity by FDSS 3000 was started, and 40 μL of DMSO solutions containing different concentrations of the test compound as prepared by dilution with dilution buffer (20 mM HEPES, 137 mM NaCl, 5.27 mM KCl, 0.9 mM MgCl2, 1.26 mM CaCl2, 5.68 mM D-glucose, 2.5 mM probenecid, 0.1% Pluronic F-127, pH7.5) were dispensed to each well through the built-in automatic dispenser. Five minutes after, 50 nM ATP solution (50 μL) prepared by dilution with the dilution buffer was dispensed through the built-in automatic dispenser, and the measurement of fluorescence intensity was continued for 4 min. For each well, the specific maximum fluorescence intensity was calculated as the ratio of the maximum fluorescence intensity after addition of the ATP solution to the fluorescence intensity at the starting of the measurement. The 50% inhibitory concentration (IC50) was calculated under the assumption that the specific maximum fluorescence intensity without test compound is 0% inhibition and that the specific maximum fluorescence intensity when the dilution buffer was added in place of ATP solution is 100% inhibition, to evaluate the inhibitory activity of the test compound. FDSS software (Hamamatsu Photonics K.K.) was used for calculation of the specific maximum fluorescence intensity. IC50 was calculated using Microsoft Excel (Microsoft Corporation) and XLfit (idbs Ltd.)
The data of the compounds I-001 to I-300 are the results by the method mentioned in Test Example 1-1, and the data of the compounds I-301 to I-483 are the results by the method mentioned in Test Example 1-2.

Chain of human P2X3 receptor (P56373 whole entry): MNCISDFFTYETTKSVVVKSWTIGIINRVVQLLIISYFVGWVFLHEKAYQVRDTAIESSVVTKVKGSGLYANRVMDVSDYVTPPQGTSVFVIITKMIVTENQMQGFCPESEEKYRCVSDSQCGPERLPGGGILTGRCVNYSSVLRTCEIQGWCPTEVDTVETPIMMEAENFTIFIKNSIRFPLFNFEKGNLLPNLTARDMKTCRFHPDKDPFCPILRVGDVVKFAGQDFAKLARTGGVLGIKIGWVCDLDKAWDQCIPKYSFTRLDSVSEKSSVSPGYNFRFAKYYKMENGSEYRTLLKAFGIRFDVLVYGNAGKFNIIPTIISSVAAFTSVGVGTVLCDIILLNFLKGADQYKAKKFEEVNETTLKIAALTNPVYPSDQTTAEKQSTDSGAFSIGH

Point of comparison: `CCC(=O)Nc1c[nH]/c(=N\c2ccc(Oc3cccc(C(N)=O)n3)cc2)n(Cc2ccc(Cl)cc2)c1=O` [Compound I-093], IC50 9 nM. Against it:
- CCn1c(=O)cc(Nc2ccc(Oc3cccc(C(=O)O)c3)nc2)n(Cc2ccc(Cl)cc2)c1=O [Compound I-062] — 5.4-fold higher, 49 nM
- CCn1c(=O)cc(Nc2ccc(Oc3ccc(C(=O)O)cc3)nc2)n(Cc2ccc(Cl)cc2)c1=O [Compound I-063] — 47-fold higher, 422 nM
- N#Cc1cccc(Oc2ccc(Nc3cc(=O)[nH]c(=O)n3Cc3ccc(Cl)cc3)cc2)n1 [Compound I-064] — 4-fold higher, 36 nM
- CC(=O)Nc1cnc(Nc2ccc(Oc3ccon3)cc2)n(Cc2ccc(Cl)cc2)c1=O [Compound I-065] — 11-fold higher, 99 nM
- NC(=O)c1cccc(Oc2ccc(Nc3cc(=O)[nH]c(=O)n3Cc3ccc(Cl)cc3)cc2)n1 [Compound I-066] — 9-fold higher, 81 nM
- O=C(O)c1cccc(Oc2ccc(Nc3cc(=O)[nH]c(=O)n3Cc3ccc(Cl)cc3)cc2)n1 [Compound I-067] — 3.8-fold higher, 34 nM
- CC(=O)Nc1cnc(Nc2ccc(Oc3cccnn3)cc2)n(Cc2ccc(Cl)cc2)c1=O [Compound I-069] — 7.6-fold higher, 68 nM
- CC(=O)Nc1cnc(Nc2ccc(Oc3cccc(F)n3)cc2)n(Cc2ccc(Cl)cc2)c1=O [Compound I-070] — 3.1-fold higher, 28 nM
- CCc1oc2ccc(Nc3ncc(NC(C)=O)c(=O)n3Cc3ccc(Cl)cc3)cc2c1C [Compound I-071] — 19-fold higher, 171 nM
- CCOC(=O)Cc1c[nH]/c(=N\c2ccc3oc(CC)c(C)c3c2)n(Cc2ccc(Cl)cc2)c1=O [Compound I-072] — 25-fold higher, 228 nM
- CCc1oc2ccc(/N=c3\[nH]cc(C(C)=O)c(=O)n3Cc3ccc(Cl)cc3)cc2c1C [Compound I-073] — 16-fold higher, 140 nM
- CCc1oc2ccc(/N=c3\[nH]cc(CC(=O)O)c(=O)n3Cc3ccc(Cl)cc3)cc2c1C [Compound I-074] — 92-fold higher, 828 nM
- CCn1c(=O)cc(Nc2cnc(Oc3cccc(C(N)=O)c3)cn2)n(Cc2ccc(Cl)cc2)c1=O [Compound I-076] — 48-fold higher, 432 nM
- CCc1oc2ccc(Nc3ncc(NC(=O)C4CCOCC4)c(=O)n3Cc3ccc(Cl)cc3)cc2c1C [Compound I-077] — 21-fold higher, 191 nM
- CCc1oc2ccc(Nc3ncc(NC(=O)C4CCOCC4)c(=O)n3Cc3cccc(Cl)c3)cc2c1C [Compound I-078] — 2.2-fold higher, 20 nM
- CCc1oc2ccc(Nc3ncc(NC(=O)C4CCOCC4)c(=O)n3Cc3ccc(Cl)c(Cl)c3)cc2c1C [Compound I-079] — 6.4-fold higher, 58 nM
- CCc1oc2ccc(Nc3ncc(NC(=O)C4CCOCC4)c(=O)n3CC3CCCCC3)cc2c1C [Compound I-080] — 2.2-fold higher, 20 nM
- CCc1oc2ccc(Nc3ncc(NC(=O)C4CCOCC4)c(=O)n3C[C@H]3CC[C@H](C)CC3)cc2c1C [Compound I-082] — the same, 9 nM
- CCn1c(=O)cc(Nc2cnc(Oc3cccc(C(=O)O)c3)cn2)n(Cc2ccc(Cl)cc2)c1=O [Compound I-083] — 19-fold higher, 168 nM
- CCc1oc2ccc(/N=c3\[nH]cc(CC(N)=O)c(=O)n3Cc3ccc(Cl)cc3)cc2c1C [Compound I-084] — 11-fold higher, 103 nM
- O=C(Nc1cnc(Nc2ccc(Oc3ccon3)cc2)n(Cc2ccc(Cl)cc2)c1=O)C1CCOCC1 [Compound I-086] — 4.5-fold lower, 2 nM
- CCc1c[nH]/c(=N\c2ccc(Oc3ncc(C(=O)O)s3)cc2)n(Cc2ccc(Cl)cc2)c1=O [Compound I-087] — 3.2-fold higher, 29 nM
- CCC(=O)Nc1c[nH]/c(=N\c2ccc(Oc3ccon3)cc2)n(Cc2ccc(Cl)cc2)c1=O [Compound I-088] — 5.4-fold higher, 49 nM
- CCC(=O)Nc1c[nH]/c(=N\c2ccc(Oc3ccc(CO)nn3)cc2)n(Cc2ccc(Cl)cc2)c1=O [Compound I-089] — 1.9-fold higher, 17 nM
- CCC(=O)Nc1c[nH]/c(=N\c2ccc(Oc3cccc(F)n3)cc2)n(Cc2ccc(Cl)cc2)c1=O [Compound I-090] — within 1.5-fold, 11 nM
- CCC(=O)Nc1c[nH]/c(=N\c2ccc(Oc3ccc(C(=O)OC)nc3)cc2)n(Cc2ccc(Cl)cc2)c1=O [Compound I-091] — 3-fold lower, 3 nM
- CCC(=O)Nc1c[nH]/c(=N\c2ccc(Oc3ccc(C(=O)O)nc3)cc2)n(Cc2ccc(Cl)cc2)c1=O [Compound I-092] — 2.1-fold higher, 19 nM
- CCC(=O)Nc1c[nH]/c(=N\c2ccc(Oc3cnc(C(=O)O)cn3)cc2)n(Cc2ccc(Cl)cc2)c1=O [Compound I-094] — within 1.5-fold, 10 nM
- CCC(=O)Nc1c[nH]/c(=N\c2ccc(Oc3ccc(C(N)=O)nc3)cc2)n(Cc2ccc(Cl)cc2)c1=O [Compound I-095] — within 1.5-fold, 8 nM
- CCOC(=O)c1c[nH]/c(=N\c2ccc(Oc3ccon3)cc2)n(Cc2ccc(Cl)cc2)c1=O [Compound I-096] — 7.1-fold higher, 64 nM
- CCC(=O)Nc1c[nH]/c(=N\c2ccc(Oc3cnc(C(N)=O)cn3)cc2)n(Cc2ccc(Cl)cc2)c1=O [Compound I-097] — 1.8-fold lower, 5 nM
- CCC(=O)Nc1c[nH]/c(=N\c2ccc(Oc3ccnc(C(=O)OC)c3)cc2)n(Cc2ccc(Cl)cc2)c1=O [Compound I-098] — within 1.5-fold, 11 nM
- O=C(O)c1c[nH]/c(=N\c2ccc(Oc3ccon3)cc2)n(Cc2ccc(Cl)cc2)c1=O [Compound I-099] — 59-fold higher, 534 nM
- NC(=O)c1c[nH]/c(=N\c2ccc(Oc3ccon3)cc2)n(Cc2ccc(Cl)cc2)c1=O [Compound I-100] — 3.6-fold higher, 32 nM
- O=C(NCCO)c1c[nH]/c(=N\c2ccc(Oc3ccon3)cc2)n(Cc2ccc(Cl)cc2)c1=O [Compound I-101] — 7.9-fold higher, 71 nM
- CCc1oc2ccc(/N=c3\[nH]cc(CC(C)=O)c(=O)n3Cc3ccc(Cl)cc3)cc2c1C [Compound I-102] — 30-fold higher, 267 nM
- CCc1oc2ccc(/N=c3\[nH]cc(CC(C)(C)O)c(=O)n3Cc3ccc(Cl)cc3)cc2c1C [Compound I-103] — 16-fold higher, 144 nM
- CCC(=O)Nc1c[nH]/c(=N\c2ccc(Oc3cccc(C(=O)O)n3)cc2)n(Cc2ccc(Cl)cc2)c1=O [Compound I-104] — 3-fold lower, 3 nM
- CCC(=O)Nc1c[nH]/c(=N\c2ccc(Oc3ccnc(C(=O)O)c3)cc2)n(Cc2ccc(Cl)cc2)c1=O [Compound I-105] — 1.8-fold lower, 5 nM
- CCC(=O)Nc1c[nH]/c(=N\c2ccc(Oc3ccnc(C(N)=O)c3)cc2)n(Cc2ccc(Cl)cc2)c1=O [Compound I-106] — within 1.5-fold, 7 nM
- CCOC(=O)c1c[nH]/c(=N\c2ccc(Oc3ncccc3F)cc2)n(Cc2ccc(Cl)cc2)c1=O [Compound I-107] — 3.2-fold higher, 29 nM
- O=C(O)c1c[nH]/c(=N\c2ccc(Oc3ncccc3F)cc2)n(Cc2ccc(Cl)cc2)c1=O [Compound I-108] — 49-fold higher, 440 nM
- CN(C(=O)C1CCOCC1)c1c[nH]/c(=N\c2ccc(Oc3ccon3)cc2)n(Cc2ccc(Cl)cc2)c1=O [Compound I-109] — 3.8-fold higher, 34 nM
- NC(=O)c1c[nH]/c(=N\c2ccc(Oc3ncccc3F)cc2)n(Cc2ccc(Cl)cc2)c1=O [Compound I-110] — 3-fold higher, 27 nM
- O=C(NCCO)c1c[nH]/c(=N\c2ccc(Oc3ncccc3F)cc2)n(Cc2ccc(Cl)cc2)c1=O [Compound I-111] — 2.4-fold higher, 22 nM
- CCOC(=O)c1c[nH]/c(=N\c2ccc(Oc3cccc(F)n3)c(C)c2)n(Cc2ccc(Cl)cc2)c1=O [Compound I-112] — 2.7-fold higher, 24 nM
- COC(=O)[C@@H](C)Cn1c(=O)cc(Nc2ccc(Oc3ccccc3)cc2)n(Cc2ccc(Cl)cc2)c1=O [Compound I-113] — 21-fold higher, 187 nM
- COC(=O)[C@@H](C)Cn1c(=O)cc(Nc2ccc(Oc3ccon3)cc2)n(Cc2ccc(Cl)cc2)c1=O [Compound I-114] — 1.9-fold higher, 17 nM
- COC(=O)[C@@H](C)Cn1c(=O)cc(Nc2ccc(Oc3ncccc3F)cc2)n(Cc2ccc(Cl)cc2)c1=O [Compound I-115] — the same, 9 nM
- COC(=O)[C@@H](C)Cn1c(=O)cc(Nc2ccc(Oc3cccc(F)n3)cc2)n(Cc2ccc(Cl)cc2)c1=O [Compound I-116] — 1.5-fold lower, 6 nM
